Assay results from ChEMBL document CHEMBL1126425, “A partial pharmacophore for the platelet activating factor (PAF) receptor” (Bioorg Med Chem Lett, 1992).

Target: Platelet-activating factor receptor (Homo sapiens, UniProt P25105)
Assay: Antagonistic activity for inhibition of [3H]PAF receptor binding to washed human platelet membranes.

Platelet-activating factor receptor, sequence (P25105 whole entry): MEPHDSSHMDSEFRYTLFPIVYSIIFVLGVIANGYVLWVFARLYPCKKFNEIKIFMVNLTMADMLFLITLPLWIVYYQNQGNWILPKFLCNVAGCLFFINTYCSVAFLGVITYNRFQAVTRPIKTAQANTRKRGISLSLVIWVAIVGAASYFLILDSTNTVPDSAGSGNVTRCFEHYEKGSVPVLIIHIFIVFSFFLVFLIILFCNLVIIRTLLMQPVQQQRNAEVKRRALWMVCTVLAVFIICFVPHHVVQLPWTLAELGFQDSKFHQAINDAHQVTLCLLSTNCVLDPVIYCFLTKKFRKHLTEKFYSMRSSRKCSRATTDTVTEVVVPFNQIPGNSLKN

SMILES	IC50 [nM]
Cc1nc2ccccc2n1Cc1ccc(C(=O)N(C)C2CCCCC2)cc1	500
CCOC[C@H](CC(C)C)NS(=O)(=O)c1ccc(Cn2c(C)nc3cnccc32)cc1	0.015
O=C([C@@H]1CSC(c2cccnc2)N1)N1CCN(CCCc2ccccc2)CC1 (stereo partly drawn)	2.3
